Several values for one entry are separate records, joined by “and”; a condition that tells them apart may be missing. Equal entries are not always repeated. Inconclusive results and toxic doses are left out. Rule for the calls: active = survival T/C of 150% or more; inactive = T/C below 125% in these data.
Test system: P388 leukemia ip, CD2F1 mice, survival T/C
Assay: NCI In Vivo Anticancer Drug Screen. Data for tumor model P388 Leukemia (intraperitoneal) in CD2F1 (CDF1) mice
Conditions: endpoint: median survival time, higher = longer survival
How it was run: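 Mice carrying the transplanted tumor received test compound or vehicle. Survival was recorded in each group, and the value is the treated-group measurement divided by that of the vehicle-treated control group.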

[1] = dose: 50.0 mg/kg/injection, schedule: Q01DX009 (ip), vehicle: Klucel (hydroxypropylcellulose) (HPC)
[2] = dose: 12.5 mg/kg/injection, schedule: Q01DX009 (ip), vehicle: saline
[3] = dose: 25.0 mg/kg/injection, schedule: Q01DX009 (ip), vehicle: saline
[4] = dose: 100.0 mg/kg/injection, schedule: Q01DX009 (ip), vehicle: saline
[5] = dose: 200.0 mg/kg/injection, schedule: Q01DX009 (ip), vehicle: saline
[6] = dose: 50.0 mg/kg/injection, schedule: Q01DX009 (ip), vehicle: saline
[7] = dose: 50.0 mg/kg/injection, schedule: Q01DX009 (ip), vehicle: saline with Tween-80
[8] = dose: 100.0 mg/kg/injection, schedule: Q01DX009 (ip), vehicle: saline with Tween-80
[9] = dose: 25.0 mg/kg/injection, schedule: Q01DX009 (ip), vehicle: saline with Tween-80
[10] = dose: 100.0 mg/kg/injection, schedule: Q04DX002 (ip), vehicle: saline with Tween-80
[11] = dose: 200.0 mg/kg/injection, schedule: Q04DX002 (ip), vehicle: saline with Tween-80

Measured: T/C

CS(=O)(=O)/C=C/c1ccc[nH]1
inactive: [1] 98 % of control | dose: 100.0 mg/kg/injection, schedule: Q01DX009 (ip), vehicle: Klucel (hydroxypropylcellulose) (HPC) 99 % of control | dose: 200.0 mg/kg/injection, schedule: Q01DX009 (ip), vehicle: Klucel (hydroxypropylcellulose) (HPC) 99 % of control

CC(=O)c1c(O)cc2c3c1OC(C)(C)C1CCC(C)(CC31)O2 (stereo not given)
inactive: dose: 6.25 mg/kg/injection, schedule: Q01DX009 (ip), vehicle: saline 105 % of control | [2] 105 % of control | [3] 104 % of control | [4] 89 % of control | [5] 93 % of control

Cc1ccccc1-n1c(C)nc2c(cnn2C)c1=O
inactive: dose: 50.0 mg/kg/injection, schedule: Q01DX005 (ip), vehicle: Klucel (hydroxypropylcellulose) (HPC) 100 % of control | dose: 100.0 mg/kg/injection, schedule: Q01DX005 (ip), vehicle: Klucel (hydroxypropylcellulose) (HPC) 95 % of control | dose: 200.0 mg/kg/injection, schedule: Q01DX005 (ip), vehicle: Klucel (hydroxypropylcellulose) (HPC) 97 % of control

N#C/C(=C\c1cccnc1)C(N)=S
inactive: [6] 101 % of control | [4] 88 % of control | [5] 104 % of control

COC(CNC(c1ccccc1)C(O)c1ccccc1)(OC)OC (stereo not given)
inactive: dose: 100.0 mg/kg/injection, schedule: Q01DX001 (ip), vehicle: saline with Tween-80 97 % of control | dose: 200.0 mg/kg/injection, schedule: Q01DX001 (ip), vehicle: saline with Tween-80 97 % of control | dose: 400.0 mg/kg/injection, schedule: Q01DX001 (ip), vehicle: saline with Tween-80 97 % of control

Cc1ccc(N=S(C)C)cc1
inactive: dose: 100.0 mg/kg/injection, schedule: Q04DX002 (ip), vehicle: Klucel (hydroxypropylcellulose) (HPC) 100 % of control | dose: 200.0 mg/kg/injection, schedule: Q04DX002 (ip), vehicle: Klucel (hydroxypropylcellulose) (HPC) 101 % of control | dose: 400.0 mg/kg/injection, schedule: Q04DX002 (ip), vehicle: Klucel (hydroxypropylcellulose) (HPC) 113 % of control

c1ccc(CSc2nn[nH]n2)cc1
inactive: dose: 100.0 mg/kg/injection, schedule: Q04DX003 (ip), vehicle: Klucel (hydroxypropylcellulose) (HPC) 96 % of control | dose: 200.0 mg/kg/injection, schedule: Q04DX003 (ip), vehicle: Klucel (hydroxypropylcellulose) (HPC) 102 % of control | dose: 400.0 mg/kg/injection, schedule: Q04DX003 (ip), vehicle: Klucel (hydroxypropylcellulose) (HPC) 101 % of control

COc1ccc(CC(=O)O)cc1OC (tested in a mixture with another compound)
inactive: dose: 100.0 mg/kg/injection, schedule: Q01DX009 (ip), vehicle: saline sonified 100 % of control | dose: 200.0 mg/kg/injection, schedule: Q01DX009 (ip), vehicle: saline sonified 100 % of control | dose: 400.0 mg/kg/injection, schedule: Q01DX009 (ip), vehicle: saline sonified 100 % of control

Cc1ccc(C)c(Nc2ccccc2[N+](=O)[O-])c1
inactive: [7] 103 % of control | [8] 108 % of control | dose: 200.0 mg/kg/injection, schedule: Q01DX009 (ip), vehicle: saline with Tween-80 100 % of control | dose: 400.0 mg/kg/injection, schedule: Q01DX009 (ip), vehicle: saline with Tween-80 112 % of control

Cc1nc(C)c(C(=O)O)cc1C(=O)O
inactive: dose: 100.0 mg/kg/injection, schedule: Q04DX003 (ip), vehicle: saline 100 % of control | dose: 200.0 mg/kg/injection, schedule: Q04DX003 (ip), vehicle: saline 95 % of control | dose: 400.0 mg/kg/injection, schedule: Q04DX003 (ip), vehicle: saline 86 % of control

COc1ccc(C(CC(=O)NCCCl)CC(=O)NCCCl)cc1
inactive: dose: 100.0 mg/kg/injection, schedule: Q01DX001 (ip), vehicle: suspension in saline 101 % of control | dose: 200.0 mg/kg/injection, schedule: Q01DX001 (ip), vehicle: suspension in saline 100 % of control

CCOC(=O)C(c1ccccc1)(S(C)(=O)=O)S(C)(=O)=O
inactive: dose: 12.5 mg/kg/injection, schedule: Q01DX009 (ip), vehicle: saline with Tween-80 108 % of control | [9] 112 % of control | [7] 104 % of control

CC(C)CN=C1NS(=O)(=O)c2ccccc21
inactive: dose: 50.0 mg/kg/injection, schedule: Q01DX005 (ip), vehicle: saline with Tween-80 100 % of control | dose: 100.0 mg/kg/injection, schedule: Q01DX005 (ip), vehicle: saline with Tween-80 101 % of control | dose: 200.0 mg/kg/injection, schedule: Q01DX005 (ip), vehicle: saline with Tween-80 101 % of control

O=C(Oc1c(OC(=O)c2ccccc2)c(OC(=O)c2ccccc2)c(OC(=O)c2ccccc2)c(OC(=O)c2ccccc2)c1OC(=O)c1ccccc1)c1ccccc1
inactive: [10] 107 % of control | [11] 94 % of control | dose: 400.0 mg/kg/injection, schedule: Q04DX002 (ip), vehicle: saline with Tween-80 89 % of control

Cc1cc(C)n2ncnc2n1
inactive: [2] 105 % of control | [3] 100 % of control | [6] 100 % of control | [4] 103 % of control

O=c1[nH]c(-c2ccncc2)nnc1-c1ccc(Cl)cc1
inactive: [10] 88 % of control | [11] 93 % of control

CC(C)CC(=O)CC1(C)CCC(c2ccoc2)O1 (stereo not given)
inactive: [9] 102 % of control | [7] 101 % of control | [8] 107 % of control

C=C1C(=O)OC2C1CCC(C)=C1C(=O)C=C(C)C12 (stereo not given)
inactive: dose: 50.0 mg/kg/injection, schedule: Q04DX003 (ip), vehicle: saline with Tween-80 109 % of control | dose: 100.0 mg/kg/injection, schedule: Q04DX003 (ip), vehicle: saline with Tween-80 116 % of control | dose: 200.0 mg/kg/injection, schedule: Q04DX003 (ip), vehicle: saline with Tween-80 119 % of control

[N-]=[N+]=NCCOCn1ccc(=O)[nH]c1=O
inactive: dose: 60.0 mg/kg/injection, schedule: Q01DX005 (ip), vehicle: saline 103 % of control | dose: 120.0 mg/kg/injection, schedule: Q01DX005 (ip), vehicle: saline 108 % of control | dose: 240.0 mg/kg/injection, schedule: Q01DX005 (ip), vehicle: saline 100 % of control

CC(C)(C)C1=NC=CNC(C(F)(F)F)=C1
inactive: dose: 12.5 mg/kg/injection, schedule: Q01DX009 (ip), vehicle: Klucel (hydroxypropylcellulose) (HPC) 94 % of control | dose: 25.0 mg/kg/injection, schedule: Q01DX009 (ip), vehicle: Klucel (hydroxypropylcellulose) (HPC) 100 % of control | [1] 94 % of control

C=CS(C=C)=NS(=O)(=O)c1ccc(C)cc1
inactive: dose: 6.25 mg/kg/injection, schedule: Q01DX009 (ip), vehicle: other 107 % of control and 110 % of control and 120 % of control | dose: 12.5 mg/kg/injection, schedule: Q01DX009 (ip), vehicle: other 107 % of control and 118 % of control and 120 % of control | dose: 25.0 mg/kg/injection, schedule: Q01DX009 (ip), vehicle: other 117 % of control

— PubChem BioAssay AID330 (DTP/NCI, 2004)
